# Experimental data taken from patent US6737441B2, “Treatment of helicobacter with isothiocyanates” (priority 2000, dated 2004).
# Where two headings read alike, the source gives them in different places.
# Assays:
# [1] = tested on: amoxicillin/clarithromycin/metronidazole - susceptible strains of Helicobacter pylori; test: Bacteriostatic activity (MIC) against susceptible strains; assay type: cell-based
# [2] = tested on: clarithromycin and/or metronidazole - intermediate or resistant strains of Helicobacter pylori; test: Bacteriostatic activity (MIC) against intermediate or resistant strains; assay type: cell-based
# [3] = in cell culture; cited from earlier work
# [4] = Helicobacter pylori, H. pylori strain no 1, read-out: MIC
# [5] = Helicobacter pylori, H. pylori strain no 2, read-out: MIC
# [6] = Helicobacter pylori, H. pylori strain no 3, read-out: MIC
# [7] = Helicobacter pylori, H. pylori strain no 4, read-out: MIC
# [8] = Helicobacter pylori, H. pylori strain no 5, read-out: MIC
# [9] = Helicobacter pylori, H. pylori strain no 6, read-out: MIC
# [10] = Helicobacter pylori, H. pylori strain no 7, read-out: MIC
# [11] = Helicobacter pylori, H. pylori strain no 8, read-out: MIC
# [12] = Helicobacter pylori, H. pylori strain no 10, read-out: MIC
# [13] = Helicobacter pylori, H. pylori strain no 11, read-out: MIC
# [14] = Helicobacter pylori, H. pylori strain no 12, read-out: MIC
# [15] = Helicobacter pylori, H. pylori strain no 13, read-out: MIC
# [16] = Helicobacter pylori, H. pylori strain no 14, read-out: MIC
# [17] = Helicobacter pylori, H. pylori strain no 15, read-out: MIC
# [18] = Helicobacter pylori, H. pylori strain no 16, read-out: MIC
# [19] = Helicobacter pylori, H. pylori strain no 17, read-out: MIC
# [20] = Helicobacter pylori, H. pylori strain no 18, read-out: MIC
# [21] = Helicobacter pylori, H. pylori strain no 19, read-out: MIC
# [22] = Helicobacter pylori, H. pylori strain no 20, read-out: MIC
# [23] = Helicobacter pylori, H. pylori strain no 22, read-out: MIC
# [24] = Helicobacter pylori, H. pylori strain no 23, read-out: MIC
# [25] = Helicobacter pylori, H. pylori strain no 24, read-out: MIC
# [26] = Helicobacter pylori, H. pylori strain no 25, read-out: MIC
# [27] = Helicobacter pylori, H. pylori strain no 26, read-out: MIC
# [28] = Helicobacter pylori, H. pylori strain no 27, read-out: MIC
# [29] = Helicobacter pylori, H. pylori strain no 28, read-out: MIC
# [30] = Helicobacter pylori, H. pylori strain no 30, read-out: MIC
# [31] = Helicobacter pylori, H. pylori strain no 31, read-out: MIC
# [32] = Helicobacter pylori, H. pylori strain no 32, read-out: MIC
# [33] = Helicobacter pylori, H. pylori strain no 33, read-out: MIC
# [34] = Helicobacter pylori, H. pylori strain no 35, read-out: MIC
# [35] = Helicobacter pylori, H. pylori strain no 36, read-out: MIC
# [36] = Helicobacter pylori, H. pylori strain no 37, read-out: MIC
# [37] = Helicobacter pylori, H. pylori strain no 39, read-out: MIC
# [38] = Helicobacter pylori, H. pylori strain no 40, read-out: MIC
# [39] = Helicobacter pylori, H. pylori strain no 41, read-out: MIC
# [40] = Helicobacter pylori, H. pylori strain no 42, read-out: MIC
# [41] = Helicobacter pylori, H. pylori strain no 43, read-out: MIC
# [42] = Helicobacter pylori, H. pylori strain no 44, read-out: MIC
# [43] = Helicobacter pylori, H. pylori strain no 45, read-out: MIC
# [44] = Helicobacter pylori, H. pylori strain no 46, read-out: MIC
# [45] = Helicobacter pylori, H. pylori strain no 47, read-out: MIC
# [46] = Helicobacter pylori, H. pylori strain no 9, read-out: MIC
# [47] = Helicobacter pylori, H. pylori strain no 29, read-out: MIC
# [48] = Helicobacter pylori, H. pylori strain no 38, read-out: MIC
smiles,measurement,setting,value
CC1(C)S[C@@H]2[C@H](NC(=O)[C@H](N)c3ccc(O)cc3)C(=O)N2[C@H]1C(=O)O [Amoxicillin],MIC,[1]; [4],0.06 µg/mL
same,MIC,[1]; [5],0.06 µg/mL
same,MIC,[1]; [6],0.06 µg/mL
same,MIC,[1]; [7],0.06 µg/mL
same,MIC,[1]; [8],0.06 µg/mL
same,MIC,[1]; [9],0.06 µg/mL
same,MIC,[1]; [10],0.06 µg/mL
same,MIC,[1]; [11],0.06 µg/mL
same,MIC,[1]; [12],0.06 µg/mL
same,MIC,[1]; [13],0.06 µg/mL
same,MIC,[1]; [14],0.06 µg/mL
same,MIC,[1]; [15],0.06 µg/mL
same,MIC,[1]; [16],0.06 µg/mL
same,MIC,[1]; [17],0.06 µg/mL
same,MIC,[1]; [18],0.06 µg/mL
same,MIC,[1]; [19],0.06 µg/mL
same,MIC,[1]; [20],0.06 µg/mL
same,MIC,[1]; [21],0.06 µg/mL
same,MIC,[1]; [22],0.06 µg/mL
same,MIC,[1]; [23],0.06 µg/mL
same,MIC,[1]; [24],0.06 µg/mL
same,MIC,[1]; [25],0.06 µg/mL
same,MIC,[1]; [26],0.06 µg/mL
same,MIC,[1]; [27],0.06 µg/mL
same,MIC,[1]; [28],0.06 µg/mL
same,MIC,[1]; [29],0.06 µg/mL
same,MIC,[1]; [30],0.06 µg/mL
same,MIC,[1]; [31],0.06 µg/mL
same,MIC,[1]; [32],0.06 µg/mL
same,MIC,[2]; [33],0.06 µg/mL
same,MIC,[2]; [34],0.06 µg/mL
same,MIC,[2]; [35],0.06 µg/mL
same,MIC,[2]; [36],0.06 µg/mL
same,MIC,[2]; [37],0.06 µg/mL
same,MIC,[2]; [38],0.06 µg/mL
same,MIC,[2]; [39],0.06 µg/mL
same,MIC,[2]; [40],0.06 µg/mL
same,MIC,[2]; [41],0.06 µg/mL
same,MIC,[2]; [42],0.06 µg/mL
same,MIC,[2]; [43],0.06 µg/mL
same,MIC,[2]; [44],0.06 µg/mL
same,MIC,[2]; [45],0.06 µg/mL
CSCCCCCN=C=S [Bertoin],activity as inducers relative to sulforaphane and sulforaphene,[3],less active
CC[C@H]1OC(=O)[C@H](C)[C@@H](O[C@H]2C[C@@](C)(OC)[C@@H](O)[C@H](C)O2)[C@H](C)[C@@H](O[C@@H]2O[C@H](C)C[C@H](N(C)C)[C@H]2O)[C@](C)(OC)C[C@@H](C)C(=O)[C@H](C)[C@@H](O)[C@]1(C)O [Clarithromycin],MIC,[1]; H. pylori strain no 2,0.125 µg/mL
same,MIC,[1]; H. pylori strain no 28,0.125 µg/mL
same,MIC,[1]; Helicobacter pylori,0.125 µg/mL
same,MIC,[1]; [4],0.06 µg/mL
same,MIC,[1]; [7],0.06 µg/mL
same,MIC,[1]; [8],0.06 µg/mL
same,MIC,[1]; [9],0.06 µg/mL
same,MIC,[1]; [10],0.06 µg/mL
same,MIC,[1]; [11],0.06 µg/mL
same,MIC,[1]; [46],0.06 µg/mL
same,MIC,[1]; [12],0.06 µg/mL
same,MIC,[1]; [13],0.06 µg/mL
same,MIC,[1]; [14],0.06 µg/mL
same,MIC,[1]; [15],0.06 µg/mL
same,MIC,[1]; [16],0.06 µg/mL
same,MIC,[1]; [17],0.06 µg/mL
same,MIC,[1]; [18],0.06 µg/mL
same,MIC,[1]; [19],0.06 µg/mL
same,MIC,[1]; [20],0.06 µg/mL
same,MIC,[1]; [21],0.06 µg/mL
same,MIC,[1]; [22],0.06 µg/mL
same,MIC,"[1]; Helicobacter pylori, H. pylori strain no 21, read-out: MIC",0.06 µg/mL
same,MIC,[1]; [23],2 µg/mL
same,MIC,[1]; [24],0.06 µg/mL
same,MIC,[1]; [25],0.06 µg/mL
same,MIC,[1]; [26],0.06 µg/mL
same,MIC,[1]; [27],0.06 µg/mL
same,MIC,[1]; [28],0.06 µg/mL
same,MIC,[1]; [47],0.06 µg/mL
same,MIC,[1]; [30],0.06 µg/mL
same,MIC,[1]; [31],0.06 µg/mL
same,MIC,[1]; [32],0.06 µg/mL
same,MIC,[2]; H. pylori strain no 34,0.125 µg/mL
same,MIC,[2]; Helicobacter pylori,0.125 µg/mL
same,MIC,[2]; [33],0.06 µg/mL
same,MIC,[2]; [34],0.06 µg/mL
same,MIC,[2]; [35],0.06 µg/mL
same,MIC,[2]; [36],0.06 µg/mL
same,MIC,[2]; [48],0.5 µg/mL
same,MIC,[2]; [38],0.06 µg/mL
same,MIC,[2]; [39],4 µg/mL
same,MIC,[2]; [40],16 µg/mL
same,MIC,[2]; [41],16 µg/mL
same,MIC,[2]; [42],16 µg/mL
same,MIC,[2]; [43],8 µg/mL
same,MIC,[2]; [44],16 µg/mL
same,MIC,[2]; [45],16 µg/mL
Cc1ncc([N+](=O)[O-])n1CCO [Metronidazole],MIC,[1]; [4],1 µg/mL
same,MIC,[1]; [5],1 µg/mL
same,MIC,[1]; [6],1 µg/mL
same,MIC,[1]; [7],1 µg/mL
same,MIC,[1]; [8],4 µg/mL
same,MIC,[1]; [9],0.06 µg/mL
same,MIC,[1]; [10],0.06 µg/mL
same,MIC,[1]; [11],0.5 µg/mL
same,MIC,[1]; [46],1 µg/mL
same,MIC,[1]; [12],0.5 µg/mL
same,MIC,[1]; [13],0.25 µg/mL
same,MIC,[1]; [14],1 µg/mL
same,MIC,[1]; [15],1 µg/mL
same,MIC,[1]; [16],0.06 µg/mL
same,MIC,[1]; [17],0.06 µg/mL
same,MIC,[1]; [18],0.5 µg/mL
same,MIC,[1]; [19],1 µg/mL
same,MIC,[1]; [20],1 µg/mL
same,MIC,[1]; [24],0.06 µg/mL
same,MIC,[1]; [25],0.5 µg/mL
same,MIC,[1]; [26],1 µg/mL
same,MIC,[1]; [27],1 µg/mL
same,MIC,[1]; [28],0.06 µg/mL
same,MIC,[1]; [29],0.5 µg/mL
same,MIC,[1]; [47],1 µg/mL
same,MIC,[1]; [30],0.5 µg/mL
same,MIC,[1]; [31],0.25 µg/mL
same,MIC,[1]; [32],1 µg/mL
same,MIC,[2]; [33],32 µg/mL
same,MIC,"[2]; Helicobacter pylori, H. pylori strain no 34, read-out: MIC",256 µg/mL
same,MIC,[2]; [34],64 µg/mL
same,MIC,[2]; [35],64 µg/mL
same,MIC,[2]; [36],64 µg/mL
same,MIC,[2]; [48],64 µg/mL
same,MIC,[2]; [37],256 µg/mL
same,MIC,[2]; [38],64 µg/mL
same,MIC,[2]; [39],16 µg/mL
same,MIC,[2]; [40],1 µg/mL
same,MIC,[2]; [41],1 µg/mL
same,MIC,[2]; [42],0.5 µg/mL
same,MIC,[2]; [43],2 µg/mL
same,MIC,[2]; [44],32 µg/mL
same,MIC,[2]; [45],64 µg/mL
C[S+]([O-])CCCCCN=C=S (stereo not drawn) [alyssin],activity as inducers relative to sulforaphane and sulforaphene,[3],less active
CS(=O)(=O)CCCN=C=S [cheirolin],activity as inducers relative to sulforaphane and sulforaphene,[3],less active
CS(=O)(=O)CCCCN=C=S [erysolin],activity as inducers relative to sulforaphane and sulforaphene,[3],less active
C[S+]([O-])CCCN=C=S (stereo not drawn) [iberin],activity as inducers relative to sulforaphane and sulforaphene,[3],less active
CSCCCN=C=S [iberverin],activity as inducers relative to sulforaphane and sulforaphene,[3],less active
